From patent publication US10450314B2, “Pteridine derivatives as modulators of ROR gamma” (Boehringer Ingelheim International GmbH, priority 2015, dated 2019)

Legend:
[1] = biological target: T1, RORγ (Homo sapiens, UniProt P51449); assay: RORγ Reporter Gene Assay (RGA), luciferase transactivation in transiently transfected HEK 293 cells; type: cell-based; settings: HEK 293 cells cotransfected with pGL4.3 luc2P/GAL4UAS and pBIND Gal4DBD hRORC LBD; 20-24 h incubation
T1 construct: expressed in transfected cells; host or cells: HEK 293 cells, transiently cotransfected with pGL4.3 luc2P/GAL4UAS/Hygro reporter
T1 sequence (P51449 269-508 limits assumed): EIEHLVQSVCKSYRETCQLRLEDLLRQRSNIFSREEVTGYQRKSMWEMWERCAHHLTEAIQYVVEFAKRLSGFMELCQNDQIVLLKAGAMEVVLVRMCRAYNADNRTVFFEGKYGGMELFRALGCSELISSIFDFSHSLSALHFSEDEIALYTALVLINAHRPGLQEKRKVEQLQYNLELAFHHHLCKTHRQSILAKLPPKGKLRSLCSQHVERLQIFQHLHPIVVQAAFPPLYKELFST
Description: Reporter Gene Assay (RGA)
A nuclear receptor transactivation assay is performed to quantitate the ability of test compounds to inhibit RORγ transactivation of a luciferase reporter. A similar assay is described in: Khan et al., Bioorganic & Medicinal Chemistry Letters 23 (2013), 532-536. The system uses transiently transfected HEK 293 cells cotransfected with two plasmids (pGL4.3, luc2P/GAL4UAS/Hygro, and pBIND, Gal4DBD hRORC LBD1-3). The positive control is co-transiently transfected with both plasmids, and the negative control contains the pGL4.3 promoter sequence. Assays are assembled in 384 well plates where transiently transfected cells and test compound at varying concentrations are incubated for 20-24 h. The next day, assays plates are taken out and equilibrated at RT for 20-30 minutes. Bright-Glo™ Luciferase Assay System is used to detect Luciferase production. After addition of Bright GLO detection reagent, the plates are incubated at RT for 20 minutes. The plates are read on an Envision plate reader to measure luminescence signal. The RLU signal is converted to POC relative to control and blank wells.
Compound Dilution Buffer:
Bright Glo Luciferase Assay System: Promega #E2620
Thaw lysis buffer provided in kit, add 100 mL lysis buffer to substrate powder.

[2] = Human liver microsome (HLM) metabolic stability assay; type: in vitro ADME; settings: human liver microsomes, 1 uM compound, 37° C., 60 min; % hepatic blood flow
Description: Assessment of Metabolic Stability
The 5 time point, high-throughput human liver microsome (HLM) metabolic stability assay is designed to determine in vitro compound metabolism. Compounds are incubated with HLMs at a concentration of 1 uM, at 37° C., for a total of 60 min. The percent of compound remaining at 5, 15, 30, and 60 min is used to calculate the t1/2 (min), CLint (mL/min/kg), CLh (mL/min/kg), and % Qh. The assay is based on a 96-well format and can accommodate up to 92 compounds per plate (n=1).
Using the 96-well multi-channel head, the Biomek FX, equipped with a Peltier heating block/shaker, is programmed to accomplish the following steps: • 1. Pipette 175 uL of 1.15 mg/mL microsomes into each of the 96 conical inserts (Analytical Sales and Products, catalog number 96PL05) that fit into the plate of the Peltier heating block/shaker (the incubation plate) • 2. Add 5 uL of compounds from the assay plate to the microsomes and shake the mixture at 600 rpm at 42.1° C. for 10 min (a setting of 42.1° C. on the Peltier is required for the samples to incubate at 37° C.) • 3. After 10 min, prompt the user to add the NADPH plate to the deck and add 20 uL from the NADPH plate to the incubation plate to start the reaction • 4. Add 215 uL of 100%, cold acetonitrile containing an internal standard(s) to a 0 minute, 5 minute, 15 minute, 30 minute, and 60 minute “quench” plate • 5. At 0 min, 5 min, 15 min, 30 min, and 60 min into the incubation, aspirate 12 uL from the incubation mixture and add it to the quench solution to stop the reaction • 6. Add 185 uL HPLC grade water to each well of the 0, 5, 15, 30 and 60 minute quench plates to dilute compounds to the appropriate concentration for the mass spectrometer
After all time points are collected, the quench plates are sealed with 96-well pierceable plate mats or heat sealing foil and centrifuged at 3000 rpm for 15 min to pellet the microsomes.
The plates are analyzed using LC/MS/MS with electron spray ionization (ESI) and the previously determined MRM transitions. The LC method includes the following parameters:
Using an Excel template in Activitybase, the peak areas corresponding to 5, 15, 30 and 60 min are compared to the peak area at 0 min to calculate the percent of remaining compound using the following equation:
Percent compound remaining=(AUC at Time t min/AUC at Time 0 min)×100 where t=0, 5, 15, 30 or 60 min.
Time (min) is plotted against the natural logarithm (Ln) of the percent compound remaining to determine the slope. The slope is used to calculate t1/2 (min) using the equation, t1/2=0.693/slope.
Clint, Intrinsic Clearance

Row | Compound | IC50 [1] | HLM (% Qh) [2]
1 | CC[C@H](C)n1c(=O)c(NCc2ccc(S(C)(=O)=O)nc2)nc2c(C)nc(-c3c(OC)ncnc3C3CC3)nc21 [Example 11] | 0.135 µM | 26 % Qh
2 | COc1ncnc(C2CC2)c1-c1nc(C)c2nc(NCc3ccc(S(C)(=N)=O)cn3)c(=O)n([C@@H](C)C(F)(F)F)c2n1 (single isomer, unassigned) [Example 105a] | 0.89 µM | <24 % Qh
3 | CC[C@@H](C)n1c(=O)c(NCc2ccc(S(=O)(=O)CC)cn2)nc2c(C)nc(-c3c(OC)ncnc3C3CC3)nc21 [Example 86] | 0.073 µM | <24 % Qh
4 | COc1ncnc(C2CC2)c1-c1nc(C)c2nc(NCc3ccc(S(C)(=N)=O)cc3)c(=O)n([C@@H](C)C3CC3)c2n1 (stereo partly drawn) [Example 67] | 0.11 µM | <24 % Qh
5 | COc1ncnc(C2CC2)c1-c1nc(C)c2nc(NCc3ccc(S(C)(=O)=O)nc3)c(=O)n([C@@H](C)C3CC3)c2n1 [Example 8] | 0.075 µM | <24 % Qh
6 | CC[C@H](C)n1c(=O)c(NCc2ccc(S(C)(=N)=O)cc2)nc2c(C)nc(-c3c(C)ncnc3C3CC3)nc21 (stereo partly drawn) [Example 84] | 0.195 µM | 33 % Qh
7 | COc1ncnc(C2CC2)c1-c1nc(C)c2nc(NCc3ccc(S(C)(=N)=O)cc3)c(=O)n([C@@H](C)C(F)(F)F)c2n1 (single isomer, unassigned) [Example 99b] | 0.26 µM | 41 % Qh
8 | Cc1ncnc(C2CC2)c1-c1nc(C)c2nc(NCc3cnc(S(C)(=O)=O)cn3)c(=O)n([C@@H](C)C(F)(F)F)c2n1 [Example 37] | 0.455 µM | <24 % Qh
9 | COc1ncnc(C2CC2)c1-c1nc(C)c2nc(NCc3ccc(S(N)(=O)=O)cn3)c(=O)n([C@@H](C)C3CC3)c2n1 [Example 62] | 0.125 µM | 27 % Qh
10 | CC[C@@H](C)n1c(=O)c(NCc2ccc(S(C)(=O)=O)cn2)nc2c(CO)nc(-c3c(C)ncnc3C3CC3)nc21 [Example 52] | 0.335 µM | <24 % Qh
11 | Cc1ncnc(C2CC2)c1-c1nc(C)c2nc(NCc3ccc(S(C)(=O)=O)cn3)c(=O)n([C@@H](C)C3CC3)c2n1 [Example 9] | 0.07 µM | <24 % Qh
12 | COc1ncnc(C2CC2)c1-c1nc(C)c2nc(NCc3ccc(S(C)(=N)=O)cn3)c(=O)n([C@@H](C)C(F)(F)F)c2n1 (single isomer, unassigned) [Example 105b] | 0.51 µM | 27 % Qh
13 | CCS(=O)(=O)c1cnc(CNc2nc3c(C)nc(-c4c(C)ncnc4C4CC4)nc3n([C@@H](C)C3CC3)c2=O)nc1 [Example 6] | 0.087 µM | <24 % Qh
14 | CC[C@@H](C)n1c(=O)c(NCc2ccc(S(N)(=O)=O)cn2)nc2c(C)nc(-c3c(C)ncnc3C3CC3)nc21 [Example 76] | 0.275 µM | 34 % Qh
15 | CCS(=N)(=O)c1ccc(CNc2nc3c(C)nc(-c4c(OC)ncnc4C4CC4)nc3n([C@@H](C)C(F)(F)F)c2=O)nc1 (single isomer, unassigned) [Example 101a] | 0.365 µM | <24 % Qh
16 | CCS(=N)(=O)c1ccc(CNc2nc3c(C)nc(-c4c(C)ncnc4C4CC4)nc3n([C@@H](C)C(F)(F)F)c2=O)cc1 (single isomer, unassigned) [Example 34a] | 0.21 µM | 25 % Qh
17 | CC[C@@H](C)n1c(=O)c(NCc2cnc(S(C)(=O)=O)cn2)nc2c(C)nc(-c3c(C)ncnc3C3CC3)nc21 [Example 55] | 0.265 µM | <24 % Qh

Row | Compound | IC50 [1] | HLM (% Qh) [2]
18 | CC[C@@H](C)n1c(=O)c(NCc2ccc(S(=O)(=O)CC)cn2)nc2c(CF)nc(-c3c(C)ncnc3C3CC3)nc21 [Example 53] | 0.16 µM | 33 % Qh
19 | CCS(=N)(=O)c1ccc(CNc2nc3c(C)nc(-c4c(OC)ncnc4C4CC4)nc3n([C@@H](C)C(F)(F)F)c2=O)nc1 (single isomer, unassigned) [Example 101b] | 0.315 µM | <24 % Qh
20 | CC[C@@H](C)n1c(=O)c(NCc2ccc(S(=O)(=O)CC)nc2)nc2c(C)nc(-c3c(OC)ncnc3C3CC3)nc21 [Example 3] | 0.088 µM | <24 % Qh
21 | CCS(=O)(=O)c1ccc(CNc2nc3c(C)nc(-c4c(C)ncnc4C4CC4)nc3n([C@@H](C)CF)c2=O)cn1 [Example 50] | 2.7 µM | <24 % Qh
22 | CCS(=O)(=O)c1cnc(CNc2nc3c(C)nc(-c4c(C)ncnc4C4CC4)nc3n([C@@H](C)C(F)(F)F)c2=O)nc1 [Example 23] | 0.178 µM | <24 % Qh
23 | CCS(=N)(=O)c1ccc(CNc2nc3c(C)nc(-c4c(C)ncnc4C4CC4)nc3n([C@@H](C)C(F)(F)F)c2=O)cc1 (single isomer, unassigned) [Example 34b] | 0.17 µM | <24 % Qh
24 | CC[C@@H](C)n1c(=O)c(NCc2ncc(S(C)(=O)=O)cn2)nc2c(C)nc(-c3c(OC)ncnc3C3CC3)nc21 [Example 56] | 1.1 µM | <24 % Qh
25 | Cc1ncnc(C2CC2)c1-c1nc(C)c2nc(NCc3ccc(S(N)(=O)=O)nc3)c(=O)n([C@@H](C)C(F)(F)F)c2n1 [Example 98] | 1.1 µM | <24 % Qh
26 | CCS(=O)(=O)c1cnc(CNc2nc3c(C)nc(-c4c(C)ncnc4C4CC4)nc3n([C@@H](C)C(F)F)c2=O)nc1 [Example 94] | 0.205 µM | <24 % Qh
27 | CCS(=N)(=O)c1ccc(CNc2nc3c(C)nc(-c4c(C)ncnc4C4CC4)nc3n([C@@H](C)C3CC3)c2=O)cc1 (single isomer, unassigned) [Example 36a] | 0.26 µM | <24 % Qh
28 | Cc1ncnc(C2CC2)c1-c1nc(C)c2nc(NCc3ccc(S(C)(=N)=O)cn3)c(=O)n([C@@H](C)C3CC3)c2n1 (single isomer, unassigned) [Example 43a] | 0.73 µM | <24 % Qh
29 | COc1ncnc(C2CC2)c1-c1nc(C)c2nc(NCc3ccc(S(N)(=O)=O)nc3)c(=O)n([C@@H](C)C(F)(F)F)c2n1 [Example 97] | 0.32 µM | 46 % Qh
30 | CC[C@H](C)n1c(=O)c(NCc2ccc(S(C)(=N)=O)cc2)nc2c(C)nc(-c3c(OC)ncnc3C3CC3)nc21 (stereo partly drawn) [Example 83] | 0.25 µM | 32 % Qh
31 | CCS(=O)(=O)c1ccc(CNc2nc3c(C)nc(-c4c(OC)ncnc4C4CC4)nc3n(CC(C)C)c2=O)nc1 [Example 80] | 0.255 µM | <24 % Qh
32 | CC[C@H](C)n1c(=O)c(NCc2ccc(S(=O)(=O)CC)nc2)nc2c(C)nc(-c3c(C)ncnc3C3CC3)nc21 [Example 64] | 0.095 µM | <24 % Qh
33 | Cc1ncnc(C2CC2)c1-c1nc(C)c2nc(NCc3ccc(S(C)(=N)=O)cn3)c(=O)n([C@@H](C)C3CC3)c2n1 (single isomer, unassigned) [Example 43b] | 0.4 µM | <24 % Qh
